Each block holds one molecule with its values, some of them ahead of it.
Columns and labels:
[1] = test system: algae; assay: Algae growth suppression in lake water (Example 4); assay type: cell-based; details: 0.1 weight percent in lake water, two months outside in sun; higher = more algal growth
[2] = Borate dissolution test in 300 mm water column; assay type: physicochemical; details: 0.2 g (0.08 weight %) in 250 ml deionized water, 300 mm column
Protocol: In this example, different forms of borates were added to columns of water and a swimming pool to determine their comparative dispersion and rate of dissolution characteristics.
Two hundred and fifty (250) ml of deionized water was placed in each of 4 measuring cylinders to give a 300 mm vertical column of water in each cylinder to mimic in small scale the depth of water in a swimming pool. […] The results of the addition were then observed visually and recorded.

[3] = Free chlorine and pH in 2000 gallon swimming pools (Example 6)

Molecule: O=BOB(O)OB(O)OB=O [Sodium tetraborate, sodium tetraborate]
Absorbance (Abs.) at 330 nm [1]: 0.01 Abs.

Molecule: OB(O)O [boric acid, reference compound]
dispersion and dissolution, observed visually [2]: mostly float on top of the water and did not completely dissolve

Molecule: O.O.O.O.O=BOB1OB(OB=O)OB2OB([O-])OB([O-])OB(O1)O2.[Na+].[Na+] [disodium octaborate tetrahydrate]
dispersion and dissolution, observed visually [2]: immediately disperse and fully dissolve in a matter of seconds

pH for swimming pool water ([3]; 1:25 pm): 7.2-7.8
pH for swimming pool water ([3]; 2:10 pm): 7.2-7.8
pH for swimming pool water ([3]; 2:50 pm): 7.2-7.8
pH for swimming pool water ([3]; 3:30 pm): 7.2-7.8
pH for swimming pool water ([3]; 4:10 pm): 7.2-7.8
pH for swimming pool water ([3]; 5:00 pm): 7.2-7.8
pH for swimming pool water ([3]; 9:45 am, before calcium hypochlorate addition, 4 pounds borate per 2000 gallons): 7.2-7.8
pH for swimming pool water ([3]; 10:00 am, time of calcium hypochlorate addition): 7.2-7.8
pH for swimming pool water ([3]; 10:55 am): 7.2-7.8
pH for swimming pool water ([3]; 11:15 am): 7.8-8.4
pH for swimming pool water ([3]; 12:00 pm): 7.8-8.4
pH for swimming pool water ([3]; 12:40 pm): 7.8-8.4
Molecule: sodium hexaborate

Source: patent publication US8465780B2, “Borate micro emulsion and method for making the same” (Nisus Corporation, priority 2006, dated 2013)
